# Reference: patent publication US7833736B2, “Protein markers of responsiveness to type III receptor tyrosine kinase inhibitors” (Cell Signaling Technology, Inc., priority 2006, dated 2010)
# System: human tumor xenografts
# Test: Growth of human tumor xenografts under OSI-930 (growth curves of xenograft tumor mass)
# Type: in vivo, mice
structure (smiles),measurement,setting,value
O=C(Nc1ccc(OC(F)(F)F)cc1)c1sccc1NCc1ccnc2ccccc12 [OSI-930],response of xenograft tumor growth to the drug (growth curves of tumor mass),"five of the cell line xenograft models, data not shown",resistant
same,response of xenograft tumor growth to the drug (growth curves of tumor mass),the other seven cell line xenograft models,significant inhibition of tumor growth
